Data reported in ChEMBL document CHEMBL1146908, “Synthesis of 16-mercaptohexadecylphosphocholine, a miltefosine analog with leishmanicidal activity” (2006).

Experiments:
Assay type in all cases: functional
Settings in all cases: read-out: LD50 (the source's name)
[1] = system: Leishmania mexicana; assay: Antileishmanial activity against miltefosine-resistant Leishmania pifanoi axenic amastigotes by MTT assay
[2] = system: Leishmania donovani; assay: Antileishmanial activity against miltefosine-resistant Leishmania donovani promastigotes by MTT assay
[3] = system: Leishmania mexicana; assay: Antileishmanial activity against Leishmania pifanoi axenic amastigotes by MTT assay
[4] = system: Leishmania donovani; assay: Antileishmanial activity against Leishmania donovani promastigotes by MTT assay

## C[N+](C)(C)CCOP(=O)([O-])OCCCCCCCCCCCCCCCCS
[1]
  LC50: > 50 µM
[2]
  LC50: > 50 µM
[3]
  LC50: 5.5 µM
[4]
  LC50: 5.1 µM

## CCCCCCCCCCCCCCCCOP(=O)([O-])OCC[N+](C)(C)C [MILTEFOSINE]
[1]
  LC50: > 50 µM
[2]
  LC50: > 50 µM
[3]
  LC50: 5 µM
[4]
  LC50: 5.3 µM
